Experimental data taken from the kinase profiling compilation of Christmann-Franck et al. (2016).
“And” between values parts separate entries of the source, which are not always exact repeats. Identical values can stand only once.

Columns and labels:
Assay in all cases: Caliper, Mobility shift assay off-chip
WNK1 (human) = WNK1 (human) (UniProt Q9H4A3)
PDK2 (human) = PDK2 (human) (UniProt Q15119)
FLT4 (human) = FLT4 (human) (UniProt P35916)
DAPK1 (human) = DAPK1 (human) (UniProt P53355)
MERTK (human) = MERTK (human) (UniProt Q12866)
PASK (human) = PASK (human) (UniProt Q96RG2)
PIM1 (human) = PIM1 (human) (UniProt P11309)
AKT1 (human) = AKT1 (human) (UniProt P31749)
AURKC (human) = AURKC (human) (UniProt Q9UQB9)
Sequence of AURKC (human) (Q9UQB9 whole entry, looked up): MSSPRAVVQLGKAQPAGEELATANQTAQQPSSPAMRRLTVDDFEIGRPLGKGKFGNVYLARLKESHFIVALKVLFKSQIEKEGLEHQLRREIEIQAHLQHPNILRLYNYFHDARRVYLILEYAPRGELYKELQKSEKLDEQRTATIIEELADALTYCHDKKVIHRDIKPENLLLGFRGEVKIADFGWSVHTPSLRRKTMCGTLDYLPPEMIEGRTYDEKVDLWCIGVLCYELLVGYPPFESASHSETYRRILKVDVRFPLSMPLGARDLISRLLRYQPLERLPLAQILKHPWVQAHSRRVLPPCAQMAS

MAPK13 (human) = MAPK13 (human) (UniProt O15264)
EPHA2 (human) = EPHA2 (human) (UniProt P29317)
RPS6KA3 KD1 KD2 (human) = RPS6KA3 KD1 KD2 (human) (UniProt P51812)
TSSK1B (human) = TSSK1B (human) (UniProt Q9BXA7)
Sequence of TSSK1B (human) (Q9BXA7 whole entry, looked up): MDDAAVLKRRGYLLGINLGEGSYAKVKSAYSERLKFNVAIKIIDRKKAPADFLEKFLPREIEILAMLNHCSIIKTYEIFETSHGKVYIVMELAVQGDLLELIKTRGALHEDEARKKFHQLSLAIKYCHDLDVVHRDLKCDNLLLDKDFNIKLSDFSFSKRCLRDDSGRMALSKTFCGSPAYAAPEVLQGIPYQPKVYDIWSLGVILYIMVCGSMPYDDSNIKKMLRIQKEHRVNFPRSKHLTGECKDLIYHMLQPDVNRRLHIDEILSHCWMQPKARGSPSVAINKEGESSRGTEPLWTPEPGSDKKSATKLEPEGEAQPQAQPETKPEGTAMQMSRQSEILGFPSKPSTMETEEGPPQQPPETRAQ

PRKG2 (human) = PRKG2 (human) (UniProt Q13237)
Sequence of PRKG2 (human) (Q13237 whole entry, looked up): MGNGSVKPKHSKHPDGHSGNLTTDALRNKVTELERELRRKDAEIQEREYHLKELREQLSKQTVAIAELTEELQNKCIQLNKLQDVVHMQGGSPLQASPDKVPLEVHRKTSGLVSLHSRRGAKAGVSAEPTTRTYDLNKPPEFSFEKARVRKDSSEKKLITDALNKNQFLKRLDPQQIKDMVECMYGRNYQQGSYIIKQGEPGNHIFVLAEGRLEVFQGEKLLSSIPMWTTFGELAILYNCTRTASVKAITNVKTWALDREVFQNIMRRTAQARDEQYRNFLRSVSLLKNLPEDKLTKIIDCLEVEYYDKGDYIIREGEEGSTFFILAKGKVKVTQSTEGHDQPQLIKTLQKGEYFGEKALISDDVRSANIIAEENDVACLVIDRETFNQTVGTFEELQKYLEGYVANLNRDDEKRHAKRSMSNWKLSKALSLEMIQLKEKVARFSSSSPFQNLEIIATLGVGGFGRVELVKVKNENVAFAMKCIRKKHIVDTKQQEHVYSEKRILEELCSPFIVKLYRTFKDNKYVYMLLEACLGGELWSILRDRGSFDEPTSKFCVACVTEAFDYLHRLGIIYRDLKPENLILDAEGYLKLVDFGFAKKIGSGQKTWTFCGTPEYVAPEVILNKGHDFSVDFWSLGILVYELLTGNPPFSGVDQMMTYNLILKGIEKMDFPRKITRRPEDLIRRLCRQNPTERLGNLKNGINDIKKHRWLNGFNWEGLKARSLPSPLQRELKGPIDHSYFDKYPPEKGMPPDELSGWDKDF

MAPK11 (human) = MAPK11 (human) (UniProt Q15759)
PTK2 (human) = PTK2 (human) (UniProt Q05397)
TEK (human) = TEK (human) (UniProt Q02763)
Sequence of TEK (human) (Q02763 whole entry, looked up): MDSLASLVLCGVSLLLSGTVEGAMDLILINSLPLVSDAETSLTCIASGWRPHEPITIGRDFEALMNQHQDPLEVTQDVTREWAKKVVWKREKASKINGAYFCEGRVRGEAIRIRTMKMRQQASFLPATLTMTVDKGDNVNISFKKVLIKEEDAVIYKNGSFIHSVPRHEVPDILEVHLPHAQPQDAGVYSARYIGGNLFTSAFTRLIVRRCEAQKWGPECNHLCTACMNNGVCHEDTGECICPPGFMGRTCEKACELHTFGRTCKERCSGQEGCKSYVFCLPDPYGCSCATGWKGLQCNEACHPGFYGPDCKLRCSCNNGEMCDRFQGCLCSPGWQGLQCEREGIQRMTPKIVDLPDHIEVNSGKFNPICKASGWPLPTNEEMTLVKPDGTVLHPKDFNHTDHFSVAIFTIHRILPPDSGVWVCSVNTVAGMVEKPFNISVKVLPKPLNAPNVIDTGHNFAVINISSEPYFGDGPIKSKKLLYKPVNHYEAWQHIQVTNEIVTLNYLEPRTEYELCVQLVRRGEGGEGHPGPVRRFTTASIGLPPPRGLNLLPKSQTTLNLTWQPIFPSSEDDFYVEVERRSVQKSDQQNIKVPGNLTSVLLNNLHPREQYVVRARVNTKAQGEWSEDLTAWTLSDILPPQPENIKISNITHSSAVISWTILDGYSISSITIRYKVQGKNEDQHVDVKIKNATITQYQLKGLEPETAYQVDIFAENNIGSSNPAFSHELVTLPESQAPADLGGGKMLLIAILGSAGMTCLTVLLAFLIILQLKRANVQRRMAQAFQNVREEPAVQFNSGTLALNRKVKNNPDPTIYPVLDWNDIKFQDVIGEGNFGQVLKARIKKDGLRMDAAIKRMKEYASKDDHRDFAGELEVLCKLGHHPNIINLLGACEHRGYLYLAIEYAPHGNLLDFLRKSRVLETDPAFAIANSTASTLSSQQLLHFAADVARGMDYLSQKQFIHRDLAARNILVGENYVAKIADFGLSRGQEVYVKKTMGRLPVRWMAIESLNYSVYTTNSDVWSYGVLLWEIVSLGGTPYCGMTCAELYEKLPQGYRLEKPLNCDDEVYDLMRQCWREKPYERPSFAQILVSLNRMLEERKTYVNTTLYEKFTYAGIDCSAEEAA

CDC42BPB (human) = CDC42BPB (human) (UniProt Q9Y5S2)
CAMK2G (human) = CAMK2G (human) (UniProt Q13555)
STK24 (human) = STK24 (human) (UniProt Q9Y6E0)
Sequence of STK24 (human) (Q9Y6E0 whole entry, looked up): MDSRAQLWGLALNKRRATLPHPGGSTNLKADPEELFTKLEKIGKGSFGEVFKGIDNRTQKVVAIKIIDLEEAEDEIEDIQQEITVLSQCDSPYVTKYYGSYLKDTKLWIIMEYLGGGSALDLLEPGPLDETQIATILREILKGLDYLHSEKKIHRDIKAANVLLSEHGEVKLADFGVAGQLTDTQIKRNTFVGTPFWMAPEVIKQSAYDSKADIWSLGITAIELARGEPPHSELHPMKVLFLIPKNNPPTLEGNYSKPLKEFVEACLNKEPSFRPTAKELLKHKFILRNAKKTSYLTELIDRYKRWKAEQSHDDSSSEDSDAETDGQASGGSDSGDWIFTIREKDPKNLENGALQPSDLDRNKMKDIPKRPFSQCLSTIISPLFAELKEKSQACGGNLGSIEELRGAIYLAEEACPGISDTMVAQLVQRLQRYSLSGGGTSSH

MINK1 (human) = MINK1 (human) (UniProt Q8N4C8)
Sequence of MINK1 (human) (Q8N4C8 whole entry, looked up): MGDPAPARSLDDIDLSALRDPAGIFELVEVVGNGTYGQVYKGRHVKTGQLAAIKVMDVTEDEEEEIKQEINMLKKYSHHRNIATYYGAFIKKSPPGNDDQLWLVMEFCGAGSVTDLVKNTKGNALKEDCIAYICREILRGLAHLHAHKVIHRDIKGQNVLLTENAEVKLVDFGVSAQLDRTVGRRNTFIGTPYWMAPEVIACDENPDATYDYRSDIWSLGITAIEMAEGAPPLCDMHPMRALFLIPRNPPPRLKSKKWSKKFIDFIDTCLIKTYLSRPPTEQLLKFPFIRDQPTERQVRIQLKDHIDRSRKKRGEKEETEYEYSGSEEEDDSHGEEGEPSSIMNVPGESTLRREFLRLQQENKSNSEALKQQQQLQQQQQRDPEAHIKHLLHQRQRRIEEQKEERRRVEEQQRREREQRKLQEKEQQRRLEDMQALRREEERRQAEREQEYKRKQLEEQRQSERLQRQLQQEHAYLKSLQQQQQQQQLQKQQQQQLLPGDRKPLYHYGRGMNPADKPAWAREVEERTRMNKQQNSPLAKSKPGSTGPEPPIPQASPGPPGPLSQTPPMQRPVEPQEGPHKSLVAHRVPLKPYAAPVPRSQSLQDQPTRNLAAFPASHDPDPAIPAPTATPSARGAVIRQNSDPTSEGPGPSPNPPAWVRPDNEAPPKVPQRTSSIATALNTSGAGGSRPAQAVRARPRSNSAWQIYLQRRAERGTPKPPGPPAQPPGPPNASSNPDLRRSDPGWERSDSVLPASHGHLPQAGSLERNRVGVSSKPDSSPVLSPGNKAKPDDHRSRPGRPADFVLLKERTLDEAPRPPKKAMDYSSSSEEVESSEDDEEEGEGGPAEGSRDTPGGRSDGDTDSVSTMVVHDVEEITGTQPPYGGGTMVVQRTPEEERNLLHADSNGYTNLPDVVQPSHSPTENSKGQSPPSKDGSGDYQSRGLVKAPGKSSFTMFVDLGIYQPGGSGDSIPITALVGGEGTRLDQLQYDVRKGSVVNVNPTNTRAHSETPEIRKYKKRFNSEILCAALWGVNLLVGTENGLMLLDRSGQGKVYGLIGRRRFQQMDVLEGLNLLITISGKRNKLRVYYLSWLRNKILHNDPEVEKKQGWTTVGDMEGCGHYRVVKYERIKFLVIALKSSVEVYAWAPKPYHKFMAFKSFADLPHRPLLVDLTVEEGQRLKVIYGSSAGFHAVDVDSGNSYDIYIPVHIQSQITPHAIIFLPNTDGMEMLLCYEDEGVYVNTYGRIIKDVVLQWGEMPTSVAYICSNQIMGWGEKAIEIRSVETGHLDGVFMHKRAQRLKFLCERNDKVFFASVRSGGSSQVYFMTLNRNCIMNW

PRKACB (human) = PRKACB (human) (UniProt P22694)
IGF1R (human) = IGF1R (human) (UniProt P08069)
EPHA1 (human) = EPHA1 (human) (UniProt P21709)
PAK7 (human) = PAK7 (human) (UniProt Q9P286)
CDK1 (human) = CDK1 (human) (UniProt P06493)
PRKCE (human) = PRKCE (human) (UniProt Q02156)
DDR1 (human) = DDR1 (human) (UniProt Q08345)
CSNK1D (human) = CSNK1D (human) (UniProt P48730)
SYK (human) = SYK (human) (UniProt P43405)
PRKCQ (human) = PRKCQ (human) (UniProt Q04759)
Sequence of PRKCQ (human) (Q04759 whole entry, looked up): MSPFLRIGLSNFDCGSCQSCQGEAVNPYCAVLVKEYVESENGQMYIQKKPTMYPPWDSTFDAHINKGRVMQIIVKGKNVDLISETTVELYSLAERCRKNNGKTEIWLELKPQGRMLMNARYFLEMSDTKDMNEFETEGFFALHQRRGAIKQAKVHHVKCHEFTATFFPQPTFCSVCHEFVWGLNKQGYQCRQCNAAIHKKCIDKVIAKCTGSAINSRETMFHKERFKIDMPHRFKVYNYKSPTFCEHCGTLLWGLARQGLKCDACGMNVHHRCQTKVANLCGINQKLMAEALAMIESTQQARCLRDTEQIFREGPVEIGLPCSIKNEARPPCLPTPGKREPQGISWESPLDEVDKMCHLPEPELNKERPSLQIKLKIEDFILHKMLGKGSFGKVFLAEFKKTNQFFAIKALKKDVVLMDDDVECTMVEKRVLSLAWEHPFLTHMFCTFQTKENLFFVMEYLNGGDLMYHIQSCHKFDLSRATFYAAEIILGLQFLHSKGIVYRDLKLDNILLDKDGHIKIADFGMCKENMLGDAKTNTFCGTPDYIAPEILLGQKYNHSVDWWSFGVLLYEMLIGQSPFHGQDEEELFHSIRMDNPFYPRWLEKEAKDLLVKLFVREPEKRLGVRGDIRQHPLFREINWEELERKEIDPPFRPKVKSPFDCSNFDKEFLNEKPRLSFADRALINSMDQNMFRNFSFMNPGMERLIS

STK10 (human) = STK10 (human) (UniProt O94804)
CDK4 (human) = CDK4 (human) (UniProt P11802)
FRK (human) = FRK (human) (UniProt P42685)

What does the source list for `CNC(=O)c1cc(Oc2ccc(NC(=O)Nc3ccc(Cl)c(C(F)(F)F)c3)cc2)ccn1`?
inhibition (WNK1 (human); compound 0.02 µM): -4.5%; inhibition (WNK1 (human); compound 0.2 µM): 6.3%; inhibition (PDK2 (human); compound 0.02 µM): -0.1%; inhibition (PDK2 (human); compound 0.2 µM): 1.3%; inhibition (FLT4 (human); compound 0.02 µM): 61.6%; inhibition (FLT4 (human); compound 0.2 µM): 98.5%; inhibition (DAPK1 (human); compound 0.02 µM): 0.7%; inhibition (DAPK1 (human); compound 0.2 µM): 1.1%; inhibition (MERTK (human); compound 0.02 µM): -3.5%; inhibition (MERTK (human); compound 0.2 µM): 10.2%; inhibition (PASK (human); compound 0.02 µM): -1%; inhibition (PASK (human); compound 0.2 µM): 1.7%; inhibition (PIM1 (human); compound 0.02 µM): 1%; inhibition (PIM1 (human); compound 0.2 µM): -3.6%; inhibition (AKT1 (human); compound 0.02 µM): -2.8%; inhibition (AKT1 (human); compound 0.2 µM): -1.4%; inhibition (AURKC (human); compound 0.02 µM): 0%; inhibition (AURKC (human); compound 0.2 µM): 11.8%; inhibition (MAPK13 (human); compound 0.02 µM): -3.5%; inhibition (MAPK13 (human); compound 0.2 µM): -0.7%; inhibition (EPHA2 (human); compound 0.02 µM): -2.7%; inhibition (EPHA2 (human); compound 0.2 µM): 9.8%; inhibition (RPS6KA3 KD1 KD2 (human); compound 0.02 µM): -5%; inhibition (RPS6KA3 KD1 KD2 (human); compound 0.2 µM): -5.9%; inhibition (TSSK1B (human); compound 0.02 µM): -3.7%; inhibition (TSSK1B (human); compound 0.2 µM): -2.9%; inhibition (PRKG2 (human); compound 0.02 µM): -4.4%; inhibition (PRKG2 (human); compound 0.2 µM): -0.6%; inhibition (MAPK11 (human); compound 0.02 µM): 10.4%; inhibition (MAPK11 (human); compound 0.2 µM): 62.3%; inhibition (PTK2 (human); compound 0.02 µM): -4.6%; inhibition (PTK2 (human); compound 0.2 µM): -3.4%; inhibition (TEK (human); compound 0.02 µM): -2.6%; inhibition (TEK (human); compound 0.2 µM): 9.5%; inhibition (CDC42BPB (human); compound 0.02 µM): -3.1%; inhibition (CDC42BPB (human); compound 0.2 µM): 0.8%; inhibition (CAMK2G (human); compound 0.02 µM): -7%; inhibition (CAMK2G (human); compound 0.2 µM): 2%; inhibition (STK24 (human); compound 0.02 µM): -3.9%; inhibition (STK24 (human); compound 0.2 µM): 5.6%; inhibition (MINK1 (human); compound 0.02 µM): -3.3%; inhibition (MINK1 (human); compound 0.2 µM): 4.1%; inhibition (PRKACB (human); compound 0.02 µM): -7.7%; inhibition (PRKACB (human); compound 0.2 µM): 3.1%; inhibition (IGF1R (human); compound 0.02 µM): -1.8%; inhibition (IGF1R (human); compound 0.2 µM): 5%; inhibition (EPHA1 (human); compound 0.02 µM): -1.2%; inhibition (EPHA1 (human); compound 0.2 µM): 8%; inhibition (PAK7 (human); compound 0.02 µM): -2.5%; inhibition (PAK7 (human); compound 0.2 µM): -1.8%; inhibition (CDK1 (human); compound 0.02 µM): -2%; inhibition (CDK1 (human); compound 0.2 µM): -2%; inhibition (PRKCE (human); compound 0.02 µM): 0.4%; inhibition (PRKCE (human); compound 0.2 µM): 6%; inhibition (DDR1 (human); compound 0.02 µM): 4.2%; inhibition (DDR1 (human); compound 0.2 µM): 88.7%; inhibition (CSNK1D (human); compound 0.02 µM): -2.4% and -2.9%; inhibition (CSNK1D (human); compound 0.2 µM): -3.6%; inhibition (SYK (human); compound 0.02 µM): -7.3%; inhibition (SYK (human); compound 0.2 µM): -11.1%; inhibition (PRKCQ (human); compound 0.02 µM): 1.3%; inhibition (PRKCQ (human); compound 0.2 µM): 14.1%; inhibition (STK10 (human); compound 0.02 µM): 3.3%; inhibition (STK10 (human); compound 0.2 µM): 36.1%; inhibition (CDK4 (human); compound 0.02 µM): -2.3%; inhibition (CDK4 (human); compound 0.2 µM): -2.5%

Which results are given for `CNC(=O)c1ccccc1Sc1ccc2c(/C=C/c3ccccn3)n[nH]c2c1`?
inhibition (WNK1 (human); compound 0.001 µM): 4.1%; inhibition (WNK1 (human); compound 0.02 µM): 2.1%; inhibition (PDK2 (human); compound 0.001 µM): -2.9%; inhibition (PDK2 (human); compound 0.02 µM): -4.8%; inhibition (FLT4 (human); compound 0.001 µM): 21.2%; inhibition (FLT4 (human); compound 0.02 µM): 86.7%; inhibition (DAPK1 (human); compound 0.001 µM): -5%; inhibition (DAPK1 (human); compound 0.02 µM): 4.8%; inhibition (MERTK (human); compound 0.001 µM): 1%; inhibition (MERTK (human); compound 0.02 µM): 3.9%; inhibition (PASK (human); compound 0.001 µM): -6.3%; inhibition (PASK (human); compound 0.02 µM): -0.6%; inhibition (PIM1 (human); compound 0.001 µM): -5.1%; inhibition (PIM1 (human); compound 0.02 µM): -3.4%; inhibition (AKT1 (human); compound 0.001 µM): -4.4%; inhibition (AKT1 (human); compound 0.02 µM): -4.8%; inhibition (AURKC (human); compound 0.001 µM): -2.1%; inhibition (AURKC (human); compound 0.02 µM): 42.3%; inhibition (MAPK13 (human); compound 0.001 µM): -3.3%; inhibition (MAPK13 (human); compound 0.02 µM): -3.7%; inhibition (EPHA2 (human); compound 0.001 µM): -8.3%; inhibition (EPHA2 (human); compound 0.02 µM): -6.2%; inhibition (TSSK1B (human); compound 0.001 µM): -4.2%; inhibition (TSSK1B (human); compound 0.02 µM): -3.6%; inhibition (PRKG2 (human); compound 0.001 µM): -4.8%; inhibition (PRKG2 (human); compound 0.02 µM): -6%; inhibition (MAPK11 (human); compound 0.001 µM): -2.8%; inhibition (MAPK11 (human); compound 0.02 µM): -3.8%; inhibition (PTK2 (human); compound 0.001 µM): -7.1%; inhibition (PTK2 (human); compound 0.02 µM): -5.9%; inhibition (TEK (human); compound 0.001 µM): -9%; inhibition (TEK (human); compound 0.02 µM): -4.9%; inhibition (CDC42BPB (human); compound 0.001 µM): -8.6%; inhibition (CDC42BPB (human); compound 0.02 µM): 2.9%; inhibition (CAMK2G (human); compound 0.001 µM): 0.2%; inhibition (CAMK2G (human); compound 0.02 µM): -1.1%; inhibition (STK24 (human); compound 0.001 µM): 2.8%; inhibition (STK24 (human); compound 0.02 µM): -1.1%; inhibition (MINK1 (human); compound 0.001 µM): 0.7%; inhibition (MINK1 (human); compound 0.02 µM): 0.1%; inhibition (PRKACB (human); compound 0.001 µM): -7.3%; inhibition (PRKACB (human); compound 0.02 µM): -10.6%; inhibition (IGF1R (human); compound 0.001 µM): 0.7%; inhibition (IGF1R (human); compound 0.02 µM): -1.8%; inhibition (EPHA1 (human); compound 0.001 µM): -5.6%; inhibition (EPHA1 (human); compound 0.02 µM): -4.2%; inhibition (PAK7 (human); compound 0.001 µM): -2.5%; inhibition (PAK7 (human); compound 0.02 µM): 7%; inhibition (CDK1 (human); compound 0.001 µM): -3.7%; inhibition (CDK1 (human); compound 0.02 µM): -3.5%; inhibition (PRKCE (human); compound 0.001 µM): 4.4%; inhibition (PRKCE (human); compound 0.02 µM): -4.2%; inhibition (DDR1 (human); compound 0.001 µM): -7%; inhibition (DDR1 (human); compound 0.02 µM): 1.9%; inhibition (CSNK1D (human); compound 0.001 µM): -5.3% and -6.3%; inhibition (CSNK1D (human); compound 0.02 µM): -5.2% and -5.3%; inhibition (SYK (human); compound 0.001 µM): -9.8%; inhibition (SYK (human); compound 0.02 µM): -8.9%; inhibition (PRKCQ (human); compound 0.001 µM): 9.9%; inhibition (PRKCQ (human); compound 0.02 µM): -1.9%; inhibition (FRK (human); compound 0.001 µM): 6.1%; inhibition (FRK (human); compound 0.02 µM): 4.2%; inhibition (STK10 (human); compound 0.001 µM): 6.2%; inhibition (STK10 (human); compound 0.02 µM): 21.3%; inhibition (CDK4 (human); compound 0.001 µM): -2.2%; inhibition (CDK4 (human); compound 0.02 µM): 2.9%
